# Laboratory results reported in ChEMBL document CHEMBL3751701, “Class I and Class II Lanthipeptides Produced by Bacillus spp” (2015).
# What was measured:
# Format in all cases: functional
# Lactococcus lactis = experiment: Antibacterial activity against Lactococcus lactis MG1614 by agar diffusion assay
# Micrococcus luteus = experiment: Antibacterial activity against Micrococcus luteus […] 8166 by agar diffusion assay
# Staphylococcus aureus [1] = experiment: Antibacterial activity against methicillin-resistant Staphylococcus aureus ATCC 43300 after 24 hrs by microdilution method; settings: ATCC 43300, 24 h
# Kocuria rhizophila = experiment: Antibacterial activity against Micrococcus luteus ATCC 9341 after 24 hrs by microdilution method
# Staphylococcus aureus [2] = experiment: Antibacterial activity against Staphylococcus aureus RFB127 after 24 hrs by microdilution method; settings: RFB127, 24 h
# Enterococcus faecalis = experiment: Antibacterial activity against Enterococcus faecalis ATCC 29212 after 24 hrs by microdilution method; settings: ATCC 29212, 24 h
# [3] = system: Staphylococcus epidermidis; experiment: Antibacterial activity against Staphylococcus epidermidis ATCC 1228 after 24 hrs by microdilution method; settings: ATCC 1228, 24 h
# Listeria monocytogenes [4] = experiment: Antibacterial activity against Listeria monocytogenes LMG 23905 after 24 hrs by microdilution method; settings: LMG 23905, 24 h
# Enterococcus faecium = experiment: Antibacterial activity against Enterococcus faecium RFB128 after 24 hrs by microdilution method; settings: RFB128, 24 h
# Staphylococcus aureus [5] = experiment: Antibacterial activity against Staphylococcus aureus ATCC 25923 after 24 hrs by microdilution method; settings: ATCC 25923, 24 h
# Listeria innocua = experiment: Antibacterial activity against Listeria innocua ATCC 33090 after 24 hrs by microdilution method; settings: ATCC 33090, 24 h
# Streptococcus agalactiae = experiment: Antibacterial activity against Streptococcus agalactiae RFB141 after 24 hrs by microdilution method; settings: RFB141, 24 h
# Priestia megaterium = experiment: Antibacterial activity against Bacillus megaterium RFB124 after 24 hrs by microdilution method; settings: RFB124, 24 h
# Listeria monocytogenes [6] = experiment: Antibacterial activity against Listeria monocytogenes LMG 21263 after 24 hrs by microdilution method; settings: LMG 21263, 24 h
# Bacillus cereus = experiment: Antibacterial activity against Bacillus cereus RFB125 after 24 hrs by microdilution method; settings: RFB125, 24 h
# Bacillus spizizenii = experiment: Antibacterial activity against Bacillus subtilis ATCC 6633 after 24 hrs by microdilution method; settings: ATCC 6633, 24 h
MIC (Lactococcus lactis) [µM],MIC (Micrococcus luteus) [µM],Structure (SMILES),MIC (Staphylococcus aureus [1]) [µM],MIC (Kocuria rhizophila) [µM],MIC (Staphylococcus aureus [2]) [µM],MIC (Enterococcus faecalis) [µM],MIC [3] [µM],MIC (Listeria monocytogenes [4]) [µM],MIC (Enterococcus faecium) [µM],MIC (Staphylococcus aureus [5]) [µM],MIC (Listeria innocua) [µM],MIC (Streptococcus agalactiae) [µM],MIC (Priestia megaterium) [µM],MIC (Listeria monocytogenes [6]) [µM],MIC (Bacillus cereus) [µM],MIC (Bacillus spizizenii) [µM]
5.55,0.0994,C=C(NC(=O)[C@@H](NC(=O)[C@H](CCCCN)NC(=O)[C@H]1CSC(C)C2NC(=O)[C@H](CC(C)C)NC(=O)C(NC(=O)[C@@H](CCC(N)=O)NC(=O)[C@@H](CC(C)C)NC(=O)[C@@H](Cc3ccccc3)NC(=O)[C@H]3CSC(C)C(NC(=O)[C@@H](NC(=O)[C@H]4CSC(C)C(NC(=O)[C@H]5CSC[C@@H](NC(=O)[C@@H](CCCCN)NC(=O)[C@H](Cc6c[nH]c7ccccc67)NC(=O)CCC(=O)O)C(=O)N[C@H](CCC(=O)O)C(=O)NC(=C)C(=O)N[C@H](CC(C)C)C(=O)N5)C(=O)N5CCC[C@H]5C(=O)NCC(=O)N4)C(C)C)C(=O)NCC(=O)N[C@H](C)C(=O)N[C@H](CC(C)C)C(=O)N[C@H](CCC(N)=O)C(=O)N/C(=C\C)C(=O)N3)C(C)SC[C@H](NC2=O)C(=O)N[C@@H](CC(N)=O)C(=O)N1)[C@@H](C)CC)C(=O)N[C@H](CCCCN)C(=O)O (stereo partly drawn),–,–,–,–,–,–,–,–,–,–,–,–,–,–
0.301,0.0151,C=C(NC(=O)[C@H](NC(=O)[C@@H](CCCCN)NC(=O)[C@@H]1CSC(C)C2NC(=O)[C@@H](CC(C)C)NC(=O)C(NC(=O)[C@H](CCC(N)=O)NC(=O)[C@H](CC(C)C)NC(=O)[C@H](Cc3ccccc3)NC(=O)[C@@H]3CSC(C)C(NC(=O)[C@H](NC(=O)[C@@H]4CSC(C)C(NC(=O)[C@H]5CSC[C@H](NC(=O)[C@H](CCCCN)NC(=O)[C@@H](N)Cc6c[nH]c7ccccc67)C(=O)N[C@@H](CCC(=O)O)C(=O)NC(=C)C(=O)N[C@@H](CC(C)C)C(=O)N5)C(=O)N5CCC[C@@H]5C(=O)NCC(=O)N4)C(C)C)C(=O)NCC(=O)N[C@@H](C)C(=O)N[C@@H](CC(C)C)C(=O)N[C@@H](CCC(N)=O)C(=O)N/C(=C\C)C(=O)N3)C(C)SC[C@@H](NC2=O)C(=O)N[C@H](CC(N)=O)C(=O)N1)[C@H](C)CC)C(=O)N[C@@H](CCCCN)C(=O)O (stereo partly drawn),–,–,–,–,–,–,–,–,–,–,–,–,–,–
–,–,C/C=C(\NC(=O)[C@H](Cc1cnc[nH]1)NC(=O)/C(=C/C)NC(=O)[C@@H]1CCCN1C(=O)[C@@H]1CSC[C@@H]2NC(=O)[C@H](CC(C)C)NC(=O)[C@@H](NC(=O)[C@H]3CSC[C@@H](NC(=O)[C@@H](NC(=O)CNC(=O)[C@H](CCCNC(=N)N)NC(=O)[C@H](CCC(N)=O)NC(=O)[C@H](CCC(=O)O)NC(=O)[C@H](C)N)[C@H](C)CC)C(=O)N[C@@H](CCC(N)=O)C(=O)NCC(=O)N[C@H](CC(N)=O)C(=O)N[C@H](CC(=O)O)C(=O)NCC(=O)N[C@H](CCCCN)C(=O)N[C@@H](CC(C)C)C(=O)N3)CSC[C@@H](NC(=O)[C@H](CCC(=O)O)NC(=O)[C@H](Cc3c[nH]c4ccccc34)NC2=O)C(=O)NCC(=O)N[C@@H](CC(C)C)C(=O)N1)C(=O)N[C@@H](CS)C(=O)N[C@H](Cc1c[nH]c2ccccc12)C(=O)N[C@H](CS)C(=O)O,0.4,0.7,1.4,1.4,2.8,0.4,0.1,2.8,0.7,2.8,0.4,0.5,0.2,1.4
